Experiments:
[1] = tested on: Dizocilpine-induced learning impairments in mice; assay: Step-through passive avoidance, Dizocilpine-induced learning impairments; format: in vivo
From the text: The apparatus is a two-compartments (15 × 20 × 15 cm high) box with one illuminated with white polyvinylchloride walls and the other darkened with black polyvinylchloride walls and a grid floor. A guillotine door separates each compartment. A 60 W lamp positioned 40 cm above the apparatus lights up the white compartment during the experiment. Scrambled foot shocks (0.3 mA for 3 s) could be delivered to the grid floor using a shock generator scrambler (Lafayette Instruments, Lafayette, USA). The guillotine door was initially closed during the training session. Each mouse was placed into the white compartment. After 5 s, the door was raised. When the mouse entered the darkened compartment and placed all its paws on the grid floor, the door is closed and the foot shocks delivered for 3 s. The step-through latency (STL-Tg), that is, the latency spent to enter the darkened compartment, and the number of vocalizations were recorded. The retention test was carried out 24 h after training. Each mouse was placed again into the white compartment. After 5 s, the door was raised. The step-through latency (STL-R) was recorded up to 300 s (Meunier et al., 2006, 2013; Villard et al., 2009, 2011). An exclusion criteria was STL-Tg and STL-R < 10 s. Animals showing these readouts are excluded from the calculations. Attrition is routinely < 5% in this test.

[2] = tested on: wfs1ab^KO zebrafish larvae; assay: Visual motor response in zebrafish larvae (hyperlocomotor response); format: in vivo; settings: at 3 µM in fish water
Procedure: The visual motor response assay quantifies the locomotor activity of the zebrafish larvae to light intensity changes. The protocol was previously described (Crouzier et al., 2021a, 2021b, 2022). In brief, 5 dpf larvae were transfered in a 96-well plate (#7701-1651, Whatman) with 300 µl of fish water and placed in a Zebrabox® (ViewPoint, Lissieu, France). The locomotor behavior was monitored using an automated videotracking device equipped with an infra-red (IR) camera under IR light illumination (Zebralab®, Viewpoint). The light protocol was as follow: 30 min of acclimatization in the dark (0% light intensity), then 2 cycles of 10-min duration light ON and 10-min duration light OFF periods. The brightness changes were immediate (<< 1 s). The activity was measured in mm/s. For each larva, the mobility were calculated as mean (OFF-ON) values to account for inter- and intra-group variability in locomotor response.
A phenotypic test described by Crouzier et al. (2022) was performed. […] Compounds were added in the fish water of larvae at 4 dpf for 24 h, and screening parameters included: (1) the lack of toxicity (including grossly observable morphological alterations) after 24 h exposure; (2) the locomotor increase in wfs1ab^KO larvae, expressed as % of V-treated wfs1ab^KO response; (3) the eventual alteration of locomotion in wfs1ab^WT larvae, expressed as % of V-treated wfs1ab^WT response; and (4) the Protection index (PI) calculated as detailed in the Methods section.

[3] = tested on: Dizocilpine-induced learning impairments in mice; assay: Spontaneous alternation in the Y-maze, Dizocilpine-induced learning impairments; format: in vivo; settings: at the highest dose tested (range 0.1-3 mg/kg IP)
Procedure: The Y-maze is made of grey polyvinylchloride. Each arm is 40 cm long, 13 cm high, 3 cm wide at the bottom, 10 cm wide at the top, and converging at an equal angle. Each mouse was placed at the end of one arm and allowed to move freely through the maze during an 8 min session. The series of arm entries, including possible returns into the same arm, were checked visually. An alternation is defined as entries into all three arms on consecutive occasions. The number of maximum alternations is therefore the total number of arm entries minus two and the percentage of alternation was calculated as (actual alternations / maximum alternations) × 100 (Maurice et al., 1996; Meunier et al., 2006, 2013). Exclusion criteria are locomotion < 10 or percentage of alternation < 25% or > 90%. Animals showing these readouts are excluded from the calculations. Attrition is routinely < 5% in this test.
Due to the chaperone nature of SIG-1R, a SIG-1R positive modulator behaves as an agonist in vivo, particularly on learning and memory abilities in mice (Maurice et al., 2019; Vavers et al., 2019). Convolamine was tested on Dizocilpine-induced learning impairments, a well-characterized SIG-1R-mediated response in mice (Maurice et al., 1994, 2001). The NMDA receptor noncompetitive antagonist Dizocilpine (0.15 mg/kg IP) prevented spontaneous alternation behavior (Fig. 4A) and increased mobility (Fig. 4B) in the Y-maze. […] Co-treatment with the SIG-1R antagonist NE-100 at 1 mg/kg IP, blocked the attenuating effect of Convolamine (Fig. 4C), thus confirming the SIG-1R-mediated effect.

[4] = biological target: T1, SIG-1R/BiP (Homo sapiens, UniProt Q99720); assay: SIG-1R/BiP dissociation assay in GFP-SIG-1R-overexpressing CHO cells; format: cell-based; settings: compound alone, at concentrations up to 30 µM
T1 construct: host or cells: CHO cells overexpressing GFP-SIG-1R
Procedure: CHO cells which overexpress GFP tagged-SIG-1R (gift from Tsung-Ping Su, NIDA/NIH, Baltimore, MD, USA) were maintained in DMEM/Glutamax culture medium supplemented with 10% heat inactivated FBS. GFP-SIG-1Roe CHO cells were plated in 6-well plates and treated with test compounds dissolved in culture medium for 30 min at 37°C. The reaction was terminated by removing the culture medium containing the test drug and replacing it with 1 ml of PBS. GFP-SIG-1R-oe CHO cells were harvested and suspended in PBS (pH 7.4) followed by cross-linking with 50 µg/ml of dithiobis succinimidyl propionate (ThermoFisher, France). The reaction was stopped by adding Tris/HCl 50 mM (pH 8.8). After a 15 min incubation on ice, cells were lysed with 50 mM Tris (pH 7.4), 150 mM NaCl, 1% Triton X/100, 0.3% sodium deoxycholate, 0.1% SDS buffer containing a protease inhibitor cocktail (Sigma-Aldrich, France). After centrifugation at 16,000 g for 1 min, the supernatant was incubated with Chromotek GFP-trap agarose (Proteintech, United Kingdom) overnight at 4°C.

T1 sequence (Q99720 whole entry): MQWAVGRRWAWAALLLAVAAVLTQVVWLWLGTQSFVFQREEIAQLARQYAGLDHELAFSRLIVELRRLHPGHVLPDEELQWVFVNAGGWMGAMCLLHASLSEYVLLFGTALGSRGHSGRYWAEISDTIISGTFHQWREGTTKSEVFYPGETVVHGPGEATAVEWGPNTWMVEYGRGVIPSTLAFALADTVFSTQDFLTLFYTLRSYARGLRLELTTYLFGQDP

## COc1ccc(C(=O)OC2CC3CCC(C2)N3)cc1OC (stereo not drawn) [Convolvine, reference compound]
[1]; at 0.3 mg/kg IP
  Dizocilpine-induced decrease in step-through latency (in words): attenuated, but in a non-significant manner
[1]; at the highest doses tested (range 0.1-3 mg/kg IP)
  Dizocilpine-induced increase in escape latency (in words): attenuated, but in a non-significant manner
[2]
  hyperlocomotor response of wfs1ab^KO zebrafish (in words): failed to attenuate
[3]
  Dizocilpine-induced alternation deficit (in words): significantly attenuated

## CCCN(CCC)CCc1ccc(OC)c(OCCc2ccccc2)c1 [NE-100, reference compound]
[4]
  dissociation of SIG-1R from BiP (in words): ineffective
[2]
  hyperlocomotor response of wfs1ab^KO zebrafish (in words): failed to affect

Source: EP4523686A1, “A SIGMA-1 RECEPTOR POSITIVE MODULATOR FOR ITS USE IN THE PREVENTION AND THE TREATMENT OF A PATHOLOGY” (priority 2023, dated 2025)
